According to paper PMC8110578, “Phenylethynylbenzyl-modified biguanides inhibit pancreatic cancer tumor growth” (Scientific Reports, 2021):

What was measured:
[1] = test system: HPNE cells (normal immortalized pancreatic epithelial cells); assay: Growth assay (crystal violet), HPNE cells; format: cell-based, human; details: 3 days treatment, crystal violet retention assay
Method: . The IC50 of most of the synthetic biguanides in HPNE cells was higher than for cancer cells (Supplementary Table S12).
(§1) All chemicals were purchased from Aldrich Chemicals in their highest purity and used without further purification. Deuterated dimethylsulfoxide (DMSO-d^6) and deuterated chloroform (CDCl3) were purchased from CDN Isotopes. NMR spectra were recorded on Bruker advance 400 and 100 spectrometers. Coupling constants are given in hertz (Hz) and chemical shifts are given in parts per million (ppm, δ) measured relative to the residual solvent (the multiplicity of the signals are given as s: singlet, d: doublet, t: triplet, and m: multiplet). High-resolution mass spectra (HRMS) were recorded on a TSQ Quantum Ultra (Thermo Scientific) triple quadrupole with accurate mass option instrument (Université de Montréal Mass Spectrometry Facility). MS experiences were performed using an UltrafleXtreme MALDI TOF/TOF mass spectrometer equipped with a SmartBeam II Nd:Yag/355 nm laser operating at 1 kHz and providing a laser focus down to 20 μm in diameter (Bruker Daltonics, Billerica, MA). The data acquisition for MS was performed in positive ion mode using the linear geometry with flexControl 3.4 (Bruker Daltonics, Billerica, MA). Acceleration voltage was set to + 25 kV and all other instrumental parameters (delayed extraction parameters, source voltages, detector gain, laser energy, etc.) were optimized for maximum S/N for the drug compounds. L-α-Phosphatidylcholine was purchased from Avanti Polar Lipids. Transport and depolarization studies as well as absorbance measurements were performed on a Varian Cary Eclipse fluorescence spectrophotometer. The hemolysis assays were performed on a Fluostar Optima plate reader. Single crystals of C18H18F3N5O3S were obtained from chloroform. A suitable crystal was selected and analysed on a Bruker Venture Metaljet diffractometer. Crystal violet retention assay was used for cell growth assays and IC50 were determined using Prism (GraphPad). NAD/NADH quantitation colorimetric kit (#K337-100) from Biovision was used according to manufacturer’s instructions. ECAR (extracellular acidification rate) and OCR of KP4 cells (oxygen consumption rate) were measured on a Seahorse XF-24 (Agilent).
(§2) Experimental. KP4 (Riken RCB1005) and PSN1 (ATCC: CRM-CRL-3211), were cultured in Dulbecco's modified Eagle's medium (DMEM) (Wisent, St-Bruno, QC) supplemented with 10 % of fetal bovine serum (FBS) (Wisent). HPNE hTERT (ATCC: CRL1423) were cultured in a mix of 75% DMEM without glucose (Sigma Cat#. D-5030) with additional 2 mM L-glutamine and 1.5 g/L sodium bicarbonate, 25% Medium M3 Base (Incell Corp. Cat# M300F- 500), fetal bovine serum 5% (wisent 10 ng/ml human recombinant EGF (Sigma-Aldrich), 5.5 mM D-glucose (Sigma-Aldrich), 750 ng/ml puromycin (Sigma-Aldrich). For dose-response assays, cells were seeded in 96 well plates (company). After 24 h, treatments were applied and cells were grown for 3 more days. Crystal violet retention assay used for cell growth assays were described previously^2. The data is expressed as relative absorbance of crystal violet extracted from the cells and diluted in 10 % acetic acid. IC50 were determined using Prism (GraphPad). Tumor spheres were grew according to Ferbeyre et al^3.

KP4 cells = assay: Growth assay (crystal violet), KP4 cells; format: cell-based, human; details: Homo sapiens, KP-4, 72 h, KP4 cells, 3 days treatment, crystal violet retention assay; read-out: IC50 KP4
Method: as §1, §2

IMR90 fibroblasts = assay: In vitro growth inhibition screen at 5 µM, IMR90 fibroblasts; format: cell-based, human; details: 72 h
Description: Figure 1 (A) Structure and crystal packing of previously studied PEB-disubstituted (A.1) and monosubstituted (A.2 and A.3) benzimidazolium salts. Compound A.1 is an efficient chloride transporter forming channels and generating holes in bacterial membranes and red blood cellular membranes. Compound A.2 penetrates phospholipid membranes but is less efficient as ion transporter as it forms more compact aggregates; its toxicity on RBC is lower than compound A.1. The replacement of the phenyl group with a methyl group in compound A.3 results in the formation of even more compact aggregates with even lower toxicity on RBC. (B) Structure of PEB-substituted biguanidium salts. For each biguanide we prepared three series of biguanidium salts with different counterions. (C) Synthesis of 4-(phenylethynyl)benzylbiguanide 1 and 4-(phenylethyl)benzylbiguanide 2; (a) Phenylacetylene, PdCl2PPh3, CuI, PPh3, Et3N, THF, 70 °C, o.n. (b) NaCN(BH3)3, EtOHNH4OAc sat./NH3, 80 °C, o.n (c) Dicyandiamide, TMSCl, THFanh., 145 °C, 1 h (d) Pd/C 10%, H2, EtOH/AcOEt, 60 °C, 2 h. (D) Synthesis of 4-(phenylethynylphenyl)biguanidium 3 and 4-(phenylethylphenyl)biguanidium 4 (a) (1) Boc2O, THF, 2 h, (2) Phenylacetylene, PdCl2PPh3, CuI, PPH3, Et3N, THF, 70°, o.n. (b) TFA, DCM, 60 °C, 2 h (c) Dicyandiamide, TMSCl, THFanh, 145 °C, 1 h (d) Pd/C 10%, H2, EtOH/AcOEt, 60 °C, 2 h. […]

red blood cells = assay: Hemolytic activity of PEB-biguanidium salts; format: cell-based; details: red blood cells 2% v/v in PBS, 1 h at 37 °C
Method: The toxicity of PEB-Biguanidiums salts was estimated through their hemolytic activity by incubating red blood cells (RBC) with the compounds for 1 h (See Supplementary Table S13 and Supplementary Fig. S29).
Experimental. Red blood cells in Alsever’s solution were centrifuged for 10 min at 300g, washed 3 times with PBS buffer, and resuspended in PBS at 2% v/v. To each well of a 96-well plate, 195 µL of red blood cell solution and 5 µL of biguanidium salt in DMSO were added, and the plate was incubated with light agitation for 1 h at 37 °C. The plate was then centrifuged for 10 min at 300g, and 50 µL of the supernatant solution of each well was transferred to another plate. Absorbance was measured at λ = 405 nm. Each measurement was performed in triplicate in three different experiments.

[2] = test system: NB508 mouse pancreatic ductal adenocarcinoma cells; assay: In vitro growth inhibition screen at 5 µM, NB508 cells; format: cell-based; details: 72 h at 37 °C
Description: Figure 1 (A) Structure and crystal packing of previously studied PEB-disubstituted (A.1) and monosubstituted (A.2 and A.3) benzimidazolium salts. Compound A.1 is an efficient chloride transporter forming channels and generating holes in bacterial membranes and red blood cellular membranes. Compound A.2 penetrates phospholipid membranes but is less efficient as ion transporter as it forms more compact aggregates; its toxicity on RBC is lower than compound A.1. The replacement of the phenyl group with a methyl group in compound A.3 results in the formation of even more compact aggregates with even lower toxicity on RBC. (B) Structure of PEB-substituted biguanidium salts. For each biguanide we prepared three series of biguanidium salts with different counterions. (C) Synthesis of 4-(phenylethynyl)benzylbiguanide 1 and 4-(phenylethyl)benzylbiguanide 2; (a) Phenylacetylene, PdCl2PPh3, CuI, PPh3, Et3N, THF, 70 °C, o.n. (b) NaCN(BH3)3, EtOHNH4OAc sat./NH3, 80 °C, o.n (c) Dicyandiamide, TMSCl, THFanh., 145 °C, 1 h (d) Pd/C 10%, H2, EtOH/AcOEt, 60 °C, 2 h. (D) Synthesis of 4-(phenylethynylphenyl)biguanidium 3 and 4-(phenylethylphenyl)biguanidium 4 (a) (1) Boc2O, THF, 2 h, (2) Phenylacetylene, PdCl2PPh3, CuI, PPH3, Et3N, THF, 70°, o.n. (b) TFA, DCM, 60 °C, 2 h (c) Dicyandiamide, TMSCl, THFanh, 145 °C, 1 h (d) Pd/C 10%, H2, EtOH/AcOEt, 60 °C, 2 h. The NMR spectra of the synthesized compounds are given in Supplementary Figs. S1–S24. (E) Relative growth of NB508 mouse pancreatic ductal adenocarcinoma cells and IMR90 fibroblasts exposed to 5 µM of PEB-biguanidium salts. Cells were incubated for 72 h at 37 °C. Errors bars represent the standard error of the mean (SEM), *p < 0.05, **p < 0.01, Student’s t test. (F) Crystal structure of 1b showing its self-assembly in the solid state. Crystal data is available in Supplementary Tables S1–S8 and crystal packing in Supplementary Fig. S25. TEXT PRINTED IN THE PICTURE: (A) A.1: HC50: 0.15 mM | (A) A.2: HC50: 1 mM | (A) A.3: HC50: 150 mM
NB508 is an aggressive pro-metastatic pancreatic cancer cell line that we used previously to study the role of mitochondria in pancreatic cancer. […].

[3] = HPTS assay, internal pH of EYPC liposomes; details: 5 mM (50 mol% relative to 10 mM EYPC), NaOH pulse at 300 s
Method: (§3) Figure 2 (A) Partition of compounds in an U-tube experiment. Concentration of biguanide on the trans-side of the U-tube at 48 h and 72 h at 25 °C, after addition of 250 µM of biguanide on the cis-side. (B) Variation in the internal pH of HPTS-containing EYPC liposomes. Intravesicular solution: 1 mM HPTS, 10 mM HEPES, and 100 mM NaCl, adjusted to pH = 7.4, and extravesicular solution: 10 mM HEPES and 100 mM NaCl, adjusted to pH = 7.4. Biguanidiums were injected after 50 s at 5 mM (50 mol% relative to the 10 mM EYPC concentration), a NaOH pulse was induced at 300 s, and the liposomes were lysed with Triton-X at 550 s. Each curve is the average of three independent measurements. (C) Fluorescence of safranin O in the EYPC liposomes. Biguanidium salts were injected at 5 mM (50 mol% relative to the 10 mM EYPC concentration) at 50 s. Each curve is the average of three independent measurements. […] Mitochondrial isolation was performed according to the previously reported protocol.

[4] = Safranin O assay, membrane potential of EYPC liposomes; details: 5 mM (50 mol% relative to 10 mM EYPC)
Method: as §3

[5] = test system: KP4 cells sub-cutaneous xenografts; assay: KP4 sub-cutaneous xenografts in nude mice; details: 50 mg/kg/day IP, 5 day/week, from day 11 post engraftment, 37 days
Description: This dose was chosen from previous work on biguanides to treat mice with pancreatic cancer.
Figure 5 Progression of the volume of KP4 cells sub-cutaneous xenografts performed in nude mice over 37 days. […] (B) Body weight of mice seven days after treatment. […] Representative images shown. Scale bar = 100 µm. […] Results are shown in graphics comparing the percentage of cells stained in each category and the intensity of staining. (E,G) Images of the most representative phenotypes for KI67 staining (E) and cleaved caspase 3 (G).
Experimental. All experiments were performed in accordance to the rules of the in vivo ethical committe of University of Montreal (CDEA #17-103). 6-7 weeks old female nude mice (Hsd:Athymic Nude- Foxn1nu, Envigo) were implanted sub-cutaneously with 750.000 KP4 cells in 100μl of a sterile mix of 20% Matrigel (Corning) in saline solution. Tumor volume was determined by using a caliper, following the formula 4/3*Π*(L*W*T) were L represent the length of the tumor, W, the width, and T, the thickness (all measured in millimeter). […] The compounds were dissolved in the vehicle: 45% Propyleneglycol (Sigma-Aldrich) +5% Tween 80 (Sigma-Aldrich) + ddH2O.

KP4 tumor sections = assay: KI67 and cleaved caspase 3 staining of tumor sections from treated mice; format: in vivo, nude mice; details: 50 mg/kg, tumor sections after treatment
Description: (B) Body weight of mice seven days after treatment. […] Representative images shown. Scale bar = 100 µm.
To assess the mechanism of the antitumor activity, we stained tumor sections obtained from animals after the treatment protocol for proliferation marker KI67 and apoptosis marker cleaved caspase 3, and quantified the data according to the scoring key in Fig. 5C. […] However, there were no significant differences in staining for cleaved caspase 3 […].

[6] = U-tube experiment (partition across a bulk hydrophobic solvent); format: physicochemical; details: 250 µM on cis side, up to 72 h
Method: as §3
Experimental. U-tube experiment was prepared by adding 800 µL of dichloromethane in a U-shaped tube as a representation of the hydrophobic lipid membrane. On the receiving end (trans side) of the tube was added 300 µL of distilled water while the other side (cis side) was filled with 300 µL of a 250 µM solution of the compound of interest at 25°C. At 48h and 72h, 100 µL aliquot of the trans side was diluted in 900 µL methanol and monitored by LCMS (292 m/z). Area under curve (AUC) was measured and fitted on a calibration curve.

Row | SMILES | IC50 [1] | IC50 (KP4 cells) | Selectivity towards cancer cells (NB508 vs IMR90 fibroblasts) (IMR90 fibroblasts) | HC 10% (µM) (red blood cells) | HC 10% (µg/ml) (red blood cells) | Growth inhibition of NB508 cells [2] | Change of internal vesicular pH (HPTS) [3] | Membrane depolarization (Safranin-O fluorescence) [4] | Effect on tumor volume [5] | KI67 staining in tumors (KP4 tumor sections) | Crossing to the trans-aqueous side of the U-tube (in words) [6]
1 | N=C(N)NC(=N)NCc1ccc(C#Cc2ccccc2)cc1 [1a, 4-(phenylethynyl)benzylbiguanide] | 16.1 µM | 7.55 µM | good selectivity towards cancer cells | > 175 µM | > 100 µg/mL | most important antiproliferative activities |  |  |  |  | 
2 | [H]/N=C(/N)N/C(=N/[H])NCCc1ccccc1 [phenformin, reference compound] |  |  |  |  |  | no effect was observed | no membrane activity | did not show this activity | only modest or non-significant effects | to a smaller extent | only traces
